Assays:
[1] = target: T1, α-amylase (Sus scrofa, UniProt P00690); assay: Alpha-amylase activity assay (starch, DNS, 540 nm); assay type: biochemical; conditions: standard acarbose
T1 sequence (P00690 16-511): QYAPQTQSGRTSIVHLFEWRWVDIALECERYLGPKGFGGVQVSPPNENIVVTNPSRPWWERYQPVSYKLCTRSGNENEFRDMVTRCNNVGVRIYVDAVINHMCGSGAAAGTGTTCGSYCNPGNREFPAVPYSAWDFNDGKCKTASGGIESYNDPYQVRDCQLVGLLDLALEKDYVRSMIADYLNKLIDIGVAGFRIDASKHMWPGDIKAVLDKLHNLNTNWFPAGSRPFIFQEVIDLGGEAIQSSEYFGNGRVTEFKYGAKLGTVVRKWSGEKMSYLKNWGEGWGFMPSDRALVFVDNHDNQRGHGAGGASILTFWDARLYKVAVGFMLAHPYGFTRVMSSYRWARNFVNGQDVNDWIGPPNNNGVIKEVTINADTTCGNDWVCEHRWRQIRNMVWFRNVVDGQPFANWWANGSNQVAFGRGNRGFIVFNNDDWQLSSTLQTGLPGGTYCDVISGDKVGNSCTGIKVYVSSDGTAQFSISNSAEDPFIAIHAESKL
Description: (§1) In order to obtain biological profiles, all the derivatives were screened against enzymes α-amylase along and α-glucosidase.

[2] = target: α-glucosidase (Saccharomyces cerevisiae, UniProt P53341); assay: Alpha-glucosidase inhibition assay; assay type: biochemical; conditions: standard acarbose
Chain of α-glucosidase (P53341 whole entry): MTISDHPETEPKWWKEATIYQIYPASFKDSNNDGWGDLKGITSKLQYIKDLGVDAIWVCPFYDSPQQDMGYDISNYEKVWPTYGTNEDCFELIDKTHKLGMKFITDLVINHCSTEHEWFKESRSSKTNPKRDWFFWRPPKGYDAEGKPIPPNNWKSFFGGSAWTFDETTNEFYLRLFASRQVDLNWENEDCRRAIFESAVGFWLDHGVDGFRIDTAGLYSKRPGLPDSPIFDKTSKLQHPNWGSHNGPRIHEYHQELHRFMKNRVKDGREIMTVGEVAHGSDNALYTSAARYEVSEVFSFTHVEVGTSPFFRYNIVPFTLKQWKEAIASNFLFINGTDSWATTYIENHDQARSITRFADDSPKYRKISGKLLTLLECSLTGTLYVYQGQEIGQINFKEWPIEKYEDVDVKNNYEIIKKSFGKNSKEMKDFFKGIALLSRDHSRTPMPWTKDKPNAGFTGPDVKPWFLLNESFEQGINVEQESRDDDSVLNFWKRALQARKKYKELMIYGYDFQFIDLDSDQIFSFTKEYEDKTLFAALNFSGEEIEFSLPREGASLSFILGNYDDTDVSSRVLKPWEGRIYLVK
Description: as §1

## O=C1CS/C(=N\c2nnc(CC(c3c[nH]c4ccccc34)C(F)(F)F)o2)N1c1cccc(Oc2ccccc2)c1 (centres unmarked) [Compound 14]
[1]
  Alpha Amylase IC50: non-active
[2]
  Alpha Glucosidase IC50: non-active

Reference: publication PMC11597374, “Synthesis, Characterizations, Anti-Diabetic and Molecular Modeling Approaches of Hybrid Indole-Oxadiazole Linked Thiazolidinone Derivatives” (Pharmaceuticals, 2024)
